Measurements: US12662489B2 (Sitryx Therapeutics Limited, priority 2023, dated 2026)

Tests used:
[1] = target: T1, MTHFD2 recombinant human enzyme (Homo sapiens, UniProt P13995); assay: MTHFD2 inhibition assay (NAD(P)H-Glo luminescence); settings: for MTHFD1/MTHFD2 IC50 ratio: selectivity of MTHFD2 inhibition over MTHFD1, band
T1 sequence (P13995 36-350): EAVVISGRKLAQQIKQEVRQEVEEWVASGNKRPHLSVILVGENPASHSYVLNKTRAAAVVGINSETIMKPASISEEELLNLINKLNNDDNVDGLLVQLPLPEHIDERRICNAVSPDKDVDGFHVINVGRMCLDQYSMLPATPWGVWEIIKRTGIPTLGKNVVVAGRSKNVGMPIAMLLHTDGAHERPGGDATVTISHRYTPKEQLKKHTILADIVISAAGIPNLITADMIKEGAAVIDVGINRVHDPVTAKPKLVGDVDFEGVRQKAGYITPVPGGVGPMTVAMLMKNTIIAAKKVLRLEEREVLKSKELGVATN

[2] = target: T2, MTHFD1 recombinant human enzyme (Homo sapiens, UniProt P11586); assay: MTHFD1 inhibition assay (NAD(P)H-Glo luminescence); settings: MTHFD1 IC50, recombinant human enzyme 200 nM, NADP, band
T2 sequence (P11586 2-291 limits assumed): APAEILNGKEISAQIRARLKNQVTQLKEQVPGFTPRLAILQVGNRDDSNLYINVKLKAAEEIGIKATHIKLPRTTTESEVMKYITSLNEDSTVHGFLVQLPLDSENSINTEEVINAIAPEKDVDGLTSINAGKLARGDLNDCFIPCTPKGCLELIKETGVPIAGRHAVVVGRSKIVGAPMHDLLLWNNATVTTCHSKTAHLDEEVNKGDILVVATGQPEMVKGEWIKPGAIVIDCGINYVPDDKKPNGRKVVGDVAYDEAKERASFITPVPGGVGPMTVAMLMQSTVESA

IC50 [1] | MTHFD1/MTHFD2 IC50 ratio [1] | IC50 [2] | Compound
10 to 100 nM | H (>9.0 to 30) | 100 to 1000 nM | CCOc1cc(C(=O)N2CCc3c(c(=O)oc4c(C)c(N5CCN(C)[C@@H](COC)C5)cc(Cl)c34)C2)c(F)cc1C(=O)NS(=O)(=O)C1(C)CC1 [Example 299, (R)-4-(10-chloro-8-(3-(methoxymethyl)-4-methylpiperazin-1-yl)-7-methyl-5-oxo-1,3,4,5-tetrahydro-2H-chromeno[3,4-c]pyridine-3-carbonyl)-2-ethoxy-5-fluoro-N-((1-methylcyclopropyl)sulfonyl)benzamide]
10 to 100 nM | H (>9.0 to 30) | 100 to 1000 nM | COC[C@H]1CN(c2cc(C)c3c4c(c(=O)oc3c2C)CN(C(=O)c2ccc(C(=O)NS(=O)(=O)N3CCCC3)c(N(C)C3CCC3)c2)CC4)CCN1C [Example 200, (R)-2-(cyclobutyl(methyl)amino)-4-(8-(3-(methoxymethyl)-4-methylpiperazin-1-yl)-7,10-dimethyl-5-oxo-1,3,4,5-tetrahydro-2H-chromeno[3,4-c]pyridine-3-carbonyl)-N-(pyrrolidin-1-ylsulfonyl)benzamide]
10 to 100 nM | F (<3) | 1 to 10 nM | COC[C@H]1CN(c2ccc3c4c(c(=O)oc3c2Cl)CN(C(=O)c2ccc(C(=O)NS(=O)(=O)N(C)C(C)C)c(O[C@@H]3C[C@@H]5C[C@@H]5C3)c2F)CC4)CCN1C [Example 65, 2-(((1R,3r,5S)-bicyclo[3.1.0]hexan-3-yl)oxy)-4-(7-chloro-8-((R)-3-(methoxymethyl)-4-methylpiperazin-1-yl)-5-oxo-1,3,4,5-tetrahydro-2H-chromeno[3,4-c]pyridine-3-carbonyl)-3-fluoro-N-(N-isopropyl-N-methylsulfamoyl)benzamide]
10 to 100 nM | H (>9.0 to 30) | 100 to 1000 nM | COC[C@H]1CN(c2cc(C)c3c4c(c(=O)oc3c2C)CN(C(=O)c2ccc(C(=O)NS(=O)(=O)N3CCC(F)CC3)c(OC)c2F)CC4)CCN1C [Example 240]
1 to 10 nM | F (<3) | 1 to 10 nM | COC[C@H]1CN(c2ccc3c4c(c(=O)oc3c2Cl)CN(C(=O)c2ccc(C(=O)NS(=O)(=O)N(C)C)c(O[C@@H]3C[C@@H]5C[C@@H]5C3)c2F)CC4)CCN1C [Example 61, 2-(((1R,3r,5S)-bicyclo[3.1.0]hexan-3-yl)oxy)-4-(7-chloro-8-((R)-3-(methoxymethyl)-4-methylpiperazin-1-yl)-5-oxo-1,3,4,5-tetrahydro-2H-chromeno[3,4-c]pyridine-3-carbonyl)-N-(N,N-dimethylsulfamoyl)-3-fluorobenzamide]
100 to 1000 nM | F (<3) | 10 to 100 nM | COC[C@H]1CN(c2ccc3c4c(c(=O)oc3c2C)CN(C(=O)c2ccc(C(=O)NS(=O)(=O)N(C)C)c(OC3C[C@@H]5C[C@@H]5C3)c2)CC4)CCN1C (mixture of isomers) [Example 113, 2-(bicyclo[3.1.0]hexan-3-yloxy)-N-(N,N-dimethylsulfamoyl)-4-(8-((R)-3-(methoxymethyl)-4-methylpiperazin-1-yl)-7-methyl-5-oxo-1,3,4,5-tetrahydro-2H-chromeno[3,4-c]pyridine-3-carbonyl)benzamide]
1 to 10 nM | F (<3) | 1 to 10 nM | COC[C@H]1CN(c2ccc3c4c(c(=O)oc3c2C)CN(C(=O)c2ccc(C(=O)NS(=O)(=O)N3CCCC3)c(O[C@@H]3C[C@@H]5C[C@@H]5C3)c2F)CC4)CCN1C [Example 63, 2-(((1R,3r,5S)-bicyclo[3.1.0]hexan-3-yl)oxy)-3-fluoro-4-(8-((R)-3-(methoxymethyl)-4-methylpiperazin-1-yl)-7-methyl-5-oxo-1,3,4,5-tetrahydro-2H-chromeno[3,4-c]pyridine-3-carbonyl)-N-(pyrrolidin-1-ylsulfonyl)benzamide]
1 to 10 nM | G (^ 3 to 9.0) | 10 to 100 nM | COC[C@H]1CN(c2cc(C)c3c4c(c(=O)oc3c2C)CN(C(=O)c2ccc(C(=O)NS(=O)(=O)C3(C)CC3)c(N(C)C3CCC3)c2F)CC4)CCN1C [Example 38, (R)-2-(cyclobutyl(methyl)amino)-3-fluoro-4-(8-(3-(methoxymethyl)-4-methylpiperazin-1-yl)-7,10-dimethyl-5-oxo-1,3,4,5-tetrahydro-2H-chromeno[3,4-c]pyridine-3-carbonyl)-N-((1-methylcyclopropyl)sulfonyl)benzamide]
10 to 100 nM | H (>9.0 to 30) | 100 to 1000 nM | COC[C@H]1CN(c2cc(Cl)c3c4c(c(=O)oc3c2C)CN(C(=O)c2cc(N(C)C)c(C(=O)NS(=O)(=O)N3CC[C@H](OC)C3)cc2F)CC4)CCN1C [Example 284, 4-(10-chloro-8-((R)-3-(methoxymethyl)-4-methylpiperazin-1-yl)-7-methyl-5-oxo-1,3,4,5-tetrahydro-2H-chromeno[3,4-c]pyridine-3-carbonyl)-2-(dimethylamino)-5-fluoro-N-(((S)-3-methoxypyrrolidin-1-yl)sulfonyl)benzamide]
100 to 1000 nM | H (>9.0 to 30) | > 5000 nM | COC[C@H]1CN(c2cc(C)c3c4c(c(=O)oc3c2C)CN(C(=O)c2cc3c(c(C(=O)NS(=O)(=O)N5CCCC5)c2)OC2(CCC2)O3)CC4)CCN1C [Example 167, (R)-6-(8-(3-(methoxymethyl)-4-methylpiperazin-1-yl)-7,10-dimethyl-5-oxo-1,3,4,5-tetrahydro-2H-chromeno[3,4-c]pyridine-3-carbonyl)-N-(pyrrolidin-1-ylsulfonyl)spiro[benzo[d][1,3]dioxole-2,1′-cyclobutane]-4-carboxamide]

Compound | IC50 [1] | MTHFD1/MTHFD2 IC50 ratio [1] | IC50 [2]
CCOc1cc(C(=O)N2CCc3c(c(=O)oc4c(C)c(N5CCN(C)[C@@H](COC)C5)cc(Cl)c34)C2)c(F)cc1C(=O)NS(=O)(=O)N1C2CCC1CC2 [Example 317, (R)-N-((7-azabicyclo[2.2.1]heptan-7-yl)sulfonyl)-4-(10-chloro-8-(3-(methoxymethyl)-4-methylpiperazin-1-yl)-7-methyl-5-oxo-1,3,4,5-tetrahydro-2H-chromeno[3,4-c]pyridine-3-carbonyl)-2-ethoxy-5-fluorobenzamide] | 10 to 100 nM | J (>30) | 100 to 1000 nM
CCOc1c(C(=O)NS(=O)(=O)N2C3CCC2CC3)ccc(C(=O)N2CCc3c(c(=O)oc4c(Cl)c(N5CCN(C)[C@@H](COC)C5)ccc34)C2)c1F [Example 209, (R)-N-((7-azabicyclo[2.2.1]heptan-7-yl)sulfonyl)-4-(7-chloro-8-(3-(methoxymethyl)-4-methylpiperazin-1-yl)-5-oxo-1,3,4,5-tetrahydro-2H-chromeno[3,4-c]pyridine-3-carbonyl)-2-ethoxy-3-fluorobenzamide] | 10 to 100 nM | F (<3) | 10 to 100 nM
COC[C@H]1CN(c2cc(C)c3c4c(c(=O)oc3c2C)CN(C(=O)c2ccc(C(=O)NS(=O)(=O)C3(C)CC3)c(N3C5CCC3CC5)c2)CC4)CCN1C [Example 48, (R)-2-(7-azabicyclo[2.2.1]heptan-7-yl)-4-(8-(3-(methoxymethyl)-4-methylpiperazin-1-yl)-7,10-dimethyl-5-oxo-1,3,4,5-tetrahydro-2H-chromeno[3,4-c]pyridine-3-carbonyl)-N-((1-methylcyclopropyl)sulfonyl)benzamide] | 1 to 10 nM | F (<3) | 1 to 10 nM
